These results are taken from patent publication US8048892B2, “Azaquinolone based compounds exhibiting prolyl hydroxylase inhibitory activity, compositions, and uses thereof” (Amgen Inc., priority 2006, dated 2011).

Counter-ions that a name gives are not always drawn.

For this experiment, the target named is HIF PHD2 (Homo sapiens, UniProt Q9GZT9). Briefly: PHD2 inhibition assay (TR-FRET, VCB-Eu detection of hydroxylated P564-HIF1α peptide). Type of experiment: biochemical. The conditions noted are these: 2 nM PHD2, 100 nM P564-HIF1α peptide, 0.25 μM 2-oxoglutarate. The method in brief: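 Human PHD2 (2 nM final) preincubated 1 h at room temperature with compound and 100 μM FeCl2 in pH 6 MES buffer, 5% DMSO final. Reaction with 100 nM biotinylated P564-HIF1α peptide, 2 mM ascorbate and 0.25 μM 2-oxoglutarate for 1 h, stopped with succinate. Hydroxylation read by TR-FRET (VCB-Eu/streptavidin-APC, 655/615 nm); IC50 from 4-parameter fit of percent of control.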
HIF PHD2, sequence (Q9GZT9 whole entry): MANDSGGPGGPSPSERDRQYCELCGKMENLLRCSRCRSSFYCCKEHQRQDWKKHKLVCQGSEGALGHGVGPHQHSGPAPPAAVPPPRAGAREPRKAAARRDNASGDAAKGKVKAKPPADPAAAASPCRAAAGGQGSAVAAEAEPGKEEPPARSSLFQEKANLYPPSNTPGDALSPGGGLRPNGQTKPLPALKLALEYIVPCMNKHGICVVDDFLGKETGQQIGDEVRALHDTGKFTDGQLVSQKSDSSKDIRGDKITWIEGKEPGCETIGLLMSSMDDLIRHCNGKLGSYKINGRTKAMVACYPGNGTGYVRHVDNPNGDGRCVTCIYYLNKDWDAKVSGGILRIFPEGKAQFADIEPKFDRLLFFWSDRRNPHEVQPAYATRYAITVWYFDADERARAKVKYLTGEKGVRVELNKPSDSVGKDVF
The compound `CC(C)c1cc2c(O)c(C(=O)NCC(=O)O)c(=O)n(C)c2cn1` [Example 113, N-((4-Hydroxy-1-methyl-6-(1-methylethyl)-2-oxo-1,2-dihydro-1,7-naphthyridin-3-yl)carbonyl)glycine] returned a half-inhibitory concentration (IC50) below 0.05 µM.

`Cn1c(=O)c(C(=O)NCC(=O)O)c(O)c2cc(C3CCCCO3)cnc21` (single isomer, unassigned) [Example 70, (R)-2-(4-Hydroxy-1-methyl-2-oxo-6-(tetrahydro-2 H-pyran-2-yl)-1,2-dihydro-1,8-naphthyridine-3-carboxamido)acetic acid or (S)-2-(4-Hydroxy-1-methyl-2-oxo-6-(tetrahydro-2 H-pyran-2-yl)-1,2-dihydro-1,8-naphthyridine-3-carboxamido)acetic acid]: the IC50 was 0.05 to 0.1 µM.

As to `Cn1c(=O)c(C(=O)NCC(=O)O)c(O)c2cc(N3CCCCC3)ncc21` [Example 121, 2-(4-Hydroxy-1-methyl-2-oxo-6-(piperidin-1-yl)-1,2-dihydro-1,7-naphthyridine-3-carboxamido)acetic acid, Trifluoroacetic acid salt], the IC50 is 0.05 to 0.1 µM.

Compound `Cn1c(=O)c(C(=O)NCC(=O)O)c(O)c2cc(C3CCCO3)c(C(F)(F)F)nc21` (racemic) [Example 99, (R,S) 2-(4-Hydroxy-1-methyl-2-oxo-6-(tetrahydrofuran-2-yl)-7-(trifluoromethyl)-1,2-dihydro-1,8-naphthyridine-3-carboxamido)acetic acid] yielded an IC50 below 0.05 µM.

`Cn1c(=O)c(C(=O)NCC(=O)O)c(O)c2cc(-c3ccccc3)ncc21` [Example 105, N-((4-Hydroxy-1-methyl-2-oxo-6-phenyl-1,2-dihydro-1,7-naphthyridin-3-yl)carbonyl)glycine] showed an IC50 below 0.05 µM.

The compound `CCc1cnc2c(c1)c(O)c(C(=O)NCC(=O)O)c(=O)n2C` [Example 79, 2-(6-Ethyl-4-hydroxy-1-methyl-2-oxo-1,2-dihydro-1,8-naphthyridine-3-carboxamido)acetic acid] had an IC50 below 0.05 µM.

`Cn1c(=O)c(C(=O)NCC(=O)O)c(O)c2cc(C#N)cnc21` [Example 85, N-((6-Cyano-4-hydroxy-1-methyl-2-oxo-1,2-dihydro-1,8-naphthyridin-3-yl)carbonyl)glycine] returned a concentration for half-maximal inhibition (IC50) below 0.05 µM.

For the compound `Cn1c(=O)c(C(=O)NCC(=O)O)c(O)c2cc(-c3cccc(N4CCOCC4)c3)cnc21` [Example 54], the IC50 was in the range of 0.05 to 0.1 µM.

On to `CN(C)c1ccc(-c2cnc3c(c2)c(O)c(C(=O)NCC(=O)O)c(=O)n3C)cn1` [Example 62, N-((6-(6-(Dimethylamino)-3-pyridinyl)-4-hydroxy-1-methyl-2-oxo-1,2-dihydro-1,8-naphthyridin-3-yl)carbonyl)glycine], for which the IC50 was below 0.05 µM.

Compound `Cn1c(=O)c(C(=O)NCC(=O)O)c(O)c2ncc(C#N)cc21` [Example 6, 2-(7-Cyano-4-hydroxy-1-methyl-2-oxo-1,2-dihydro-1,5-naphthyridine-3-carboxamido)acetic acid] yielded an IC50 below 0.05 µM.

Consider `CCCc1cnc2c(c1)c(O)c(C(=O)NCC(=O)O)c(=O)n2C` [Example 83, 2-(4-Hydroxy-1-methyl-2-oxo-6-propyl-1,2-dihydro-1,8-naphthyridine-3-carboxamido)acetic acid], for which the IC50 fell in the range of 0.05 to 0.1 µM.

Compound `CC(=O)N1CC=C(c2cc3c(O)c(C(=O)NCC(=O)O)c(=O)n(C)c3cn2)CC1` [Example 118, 2-(6-(1-Acetyl-1,2,3,6-tetrahydropyridin-4-yl)-4-hydroxy-1-methyl-2-oxo-1,2-dihydro-1,7-naphthyridine-3-carboxamido)acetic acid, Trifluoroacetic acid salt] showed a 50% inhibitory concentration (IC50) below 0.05 µM.

As to `Cn1c(=O)c(C(=O)NCC(=O)O)c(O)c2ncc(-c3cccs3)cc21` [Example 2, 2-(4-Hydroxy-1-methyl-2-oxo-7-(thiophen-2-yl)-1,2-dihydro-1,5-naphthyridine-3-carboxamido)acetic acid], the half-maximal inhibitory concentration (IC50) is below 0.05 µM.

Regarding `COc1ccc2c(O)c(C(=O)NCC(=O)O)c(=O)n(C)c2n1` [Example 25, 2-(4-Hydroxy-7-methoxy-1-methyl-2-oxo-1,2-dihydro-1,8-naphthyridine-3-carboxamido)acetic acid], the IC50 was below 0.05 µM.

Compound `Cn1c(=O)c(C(=O)NCC(=O)O)c(O)c2cc(-c3ccccc3C(N)=O)cnc21` [Example 41, N-((6-(2-(Aminocarbonyl)phenyl)-4-hydroxy-1-methyl-2-oxo-1,2-dihydro-1,8-naphthyridin-3-yl)carbonyl)glycine] came in with an IC50 of 0.05 to 0.1 µM.

For the compound `Cn1c(=O)c(C(=O)NCC(=O)O)c(O)c2cc(C3=CCOCC3)cnc21` [Example 26, 2-(6-(3,6-Dihydro-2 H-pyran-4-yl)-4-hydroxy-1-methyl-2-oxo-1,2-dihydro-1,8-naphthyridine-3-carboxamido)acetic acid], the half-maximal inhibitory concentration (IC50) lay in the range of 0.05 to 0.1 µM.

As for `CN(C)c1cccc(-c2cnc3c(c2)c(O)c(C(=O)NCC(=O)O)c(=O)n3C)c1` [Example 50, N-((6-(3-(Dimethylamino)phenyl)-4-hydroxy-1-methyl-2-oxo-1,2-dihydro-1,8-naphthyridin-3-yl)carbonyl)glycine], the IC50 was below 0.05 µM.

`Cn1c(=O)c(C(=O)NCC(=O)O)c(O)c2cc(-c3ccc4c(c3)CCO4)cnc21` [Example 39, N-((6-(2,3-Dihydro-1-benzofuran-5-yl)-4-hydroxy-1-methyl-2-oxo-1,2-dihydro-1,8-naphthyridin-3-yl)carbonyl)glycine] registered an IC50 of 0.05 to 0.1 µM.

`Cc1cccc(C)c1-c1cnc2c(c1)c(O)c(C(=O)NCC(=O)O)c(=O)n2C` [Example 40, N-((6-(2,6-Dimethylphenyl)-4-hydroxy-1-methyl-2-oxo-1,2-dihydro-1,8-naphthyridin-3-yl)carbonyl)glycine] yielded an IC50 of 0.1 to 0.5 µM.

Regarding `Cn1c(=O)c(C(=O)NCC(=O)O)c(O)c2cc(C3CCOC3)c(C(F)(F)F)nc21` (single isomer, unassigned) [Example 103, (R)-2-(4-Hydroxy-1-methyl-2-oxo-6-(tetrahydrofuran-3-yl)-7-(trifluoromethyl)-1,2-dihydro-1,8-naphthyridine-3-carboxamido)acetic acid or (S)-2-(4-Hydroxy-1-methyl-2-oxo-6-(tetrahydrofuran-3-yl)-7-(trifluoromethyl)-1,2-dihydro-1,8-naphthyridine-3-carboxamido)acetic acid], the IC50 was below 0.05 µM.

As to `Cc1ccccc1-c1cc2c(O)c(C(=O)NCC(=O)O)c(=O)n(C)c2c(C(F)(F)F)n1` [Example 125, N-((4-Hydroxy-1-methyl-6-(2-methylphenyl)-2-oxo-8-(trifluoromethyl)-1,2-dihydro-1,7-naphthyridin-3-yl)carbonyl)glycine], the IC50 was below 0.05 µM.

The compound `Cc1ccc(-c2cnc3c(c2)c(O)c(C(=O)NCC(=O)O)c(=O)n3C)c(F)n1` [Example 48, N-((6-(2-Fluoro-6-methyl-3-pyridinyl)-4-hydroxy-1-methyl-2-oxo-1,2-dihydro-1,8-naphthyridin-3-yl)carbonyl)glycine] had an IC50 below 0.05 µM.

`Cn1c(=O)c(C(=O)NCC(=O)O)c(O)c2ccc(C#C[Si](C)(C)C)nc21` [Example 19, 2-(4-Hydroxy-1-methyl-2-oxo-7-(2-(trimethylsilyl)ethynyl)-1,2-dihydro-1,8-naphthyridine-3-carboxamido)acetic acid] had an IC50 of 0.05 to 0.1 µM.
